Laboratory results: ChEMBL document CHEMBL2385026, “Identification of C-2 hydroxyethyl imidazopyrrolopyridines as potent JAK1 inhibitors with favorable physicochemical properties and high selectivity over JAK2” (J Med Chem, 2013)

Key:
Cytochrome P450 2C9 = Cytochrome P450 2C9 (Homo sapiens, UniProt P11712)
[1] = AUC in Sprague-Dawley rat at 2 mg/kg, po by LC/MS/MS analysis; assay type: ADME, organism-based; set-up: dose 2 mg/kg, route oral; settings: plasma
[2] = Metabolic stability in monkey hepatocytes assessed as hepatic clearance; assay type: ADME, cell-based, Macaca mulatta, Liver, Hepatocyte; settings: rhesus monkey
[3] = Half life in Sprague-Dawley rat at 0.4 mg/kg, iv by LC/MS/MS analysis; assay type: ADME, organism-based; set-up: dose 0.4 mg/kg, route intravenous; settings: in vivo
[4] = Plasma protein binding in rat; assay type: ADME, cell-free; settings: read-out: PPB (converted)
[5] = AUC in cynomolgus monkey at 2 mg/kg, po by LC/MS/MS analysis; assay type: ADME, organism-based, Macaca fascicularis; set-up: dose 2 mg/kg, route oral; settings: plasma
[6] = Clearance in cynomolgus monkey at 0.4 mg/kg, iv by LC/MS/MS analysis; assay type: ADME, organism-based, Macaca fascicularis; set-up: dose 0.4 mg/kg, route intravenous; settings: in vivo
[7] = Hepatic clearance in human liver microsomes by LC/MS/MS analysis; assay type: ADME, Microsome
[8] = target: T1, Non-receptor tyrosine-protein kinase TYK2 (Homo sapiens, UniProt P29597)
T1 sequence (P29597 whole entry): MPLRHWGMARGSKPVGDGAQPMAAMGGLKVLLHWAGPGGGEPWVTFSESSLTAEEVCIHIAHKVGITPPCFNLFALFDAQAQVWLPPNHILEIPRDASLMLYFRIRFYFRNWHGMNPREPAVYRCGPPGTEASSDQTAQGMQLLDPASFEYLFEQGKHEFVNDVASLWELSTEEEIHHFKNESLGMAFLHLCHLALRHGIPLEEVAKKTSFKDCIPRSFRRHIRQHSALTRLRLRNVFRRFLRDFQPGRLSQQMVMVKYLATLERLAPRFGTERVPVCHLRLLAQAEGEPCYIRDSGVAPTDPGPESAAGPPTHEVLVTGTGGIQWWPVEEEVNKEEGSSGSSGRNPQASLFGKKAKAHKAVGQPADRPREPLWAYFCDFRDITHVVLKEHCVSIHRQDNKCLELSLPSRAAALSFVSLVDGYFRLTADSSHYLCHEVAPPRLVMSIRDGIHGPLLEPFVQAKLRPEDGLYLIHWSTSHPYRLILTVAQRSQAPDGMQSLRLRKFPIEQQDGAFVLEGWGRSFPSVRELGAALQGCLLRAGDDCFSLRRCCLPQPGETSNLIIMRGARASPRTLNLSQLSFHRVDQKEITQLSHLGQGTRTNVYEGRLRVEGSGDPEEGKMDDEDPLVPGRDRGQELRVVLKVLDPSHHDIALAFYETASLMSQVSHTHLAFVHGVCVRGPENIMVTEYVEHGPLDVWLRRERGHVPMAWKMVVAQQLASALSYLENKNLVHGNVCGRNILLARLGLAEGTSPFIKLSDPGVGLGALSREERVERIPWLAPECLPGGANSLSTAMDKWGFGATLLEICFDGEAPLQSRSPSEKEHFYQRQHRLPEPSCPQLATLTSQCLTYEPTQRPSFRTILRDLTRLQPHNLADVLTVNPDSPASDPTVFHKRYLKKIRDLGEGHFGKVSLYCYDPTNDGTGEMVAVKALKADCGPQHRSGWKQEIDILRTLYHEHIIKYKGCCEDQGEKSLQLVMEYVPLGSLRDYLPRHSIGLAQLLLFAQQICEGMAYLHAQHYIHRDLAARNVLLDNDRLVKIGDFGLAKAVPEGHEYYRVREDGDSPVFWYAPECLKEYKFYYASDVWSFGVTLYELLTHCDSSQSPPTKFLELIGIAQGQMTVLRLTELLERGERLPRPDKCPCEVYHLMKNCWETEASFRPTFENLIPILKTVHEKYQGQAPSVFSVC

[9] = Half life in cynomolgus monkey at 0.4 mg/kg, iv by LC/MS/MS analysis; assay type: ADME, organism-based, Macaca fascicularis; set-up: dose 0.4 mg/kg, route intravenous; settings: in vivo
Cytochrome P450 2D6 = Cytochrome P450 2D6 (Homo sapiens, UniProt P10635)
[10] = Metabolic stability in rat hepatocytes assessed as hepatic clearance; assay type: ADME, cell-based, Liver, Hepatocyte
[11] = Plasma protein binding in cynomolgus monkey; assay type: ADME, cell-free, Macaca fascicularis; settings: read-out: PPB (converted)
[12] = Half life in Beagle dog at 0.4 mg/kg, iv by LC/MS/MS analysis; assay type: ADME, organism-based, Canis lupus familiaris; set-up: dose 0.4 mg/kg, route intravenous; settings: in vivo
[13] = Plasma protein binding in dog; assay type: ADME, cell-free, Canis lupus familiaris; settings: read-out: PPB (converted)
[14] = target: T1, Non-receptor tyrosine-protein kinase TYK2; remark: listed apart in the source
[15] = Thermodynamic solubility in aqueous buffer at pH 7.4; assay type: physicochemical; settings: read-out: Therm_solubility
[16] = Oral bioavailability in Beagle dog at 2 mg/kg by LC/MS/MS analysis; assay type: ADME, organism-based, Canis lupus familiaris; settings: Beagle, in vivo
[17] = target: T2, Tyrosine-protein kinase JAK1 (Homo sapiens, UniProt P23458)
T2 sequence (P23458 whole entry): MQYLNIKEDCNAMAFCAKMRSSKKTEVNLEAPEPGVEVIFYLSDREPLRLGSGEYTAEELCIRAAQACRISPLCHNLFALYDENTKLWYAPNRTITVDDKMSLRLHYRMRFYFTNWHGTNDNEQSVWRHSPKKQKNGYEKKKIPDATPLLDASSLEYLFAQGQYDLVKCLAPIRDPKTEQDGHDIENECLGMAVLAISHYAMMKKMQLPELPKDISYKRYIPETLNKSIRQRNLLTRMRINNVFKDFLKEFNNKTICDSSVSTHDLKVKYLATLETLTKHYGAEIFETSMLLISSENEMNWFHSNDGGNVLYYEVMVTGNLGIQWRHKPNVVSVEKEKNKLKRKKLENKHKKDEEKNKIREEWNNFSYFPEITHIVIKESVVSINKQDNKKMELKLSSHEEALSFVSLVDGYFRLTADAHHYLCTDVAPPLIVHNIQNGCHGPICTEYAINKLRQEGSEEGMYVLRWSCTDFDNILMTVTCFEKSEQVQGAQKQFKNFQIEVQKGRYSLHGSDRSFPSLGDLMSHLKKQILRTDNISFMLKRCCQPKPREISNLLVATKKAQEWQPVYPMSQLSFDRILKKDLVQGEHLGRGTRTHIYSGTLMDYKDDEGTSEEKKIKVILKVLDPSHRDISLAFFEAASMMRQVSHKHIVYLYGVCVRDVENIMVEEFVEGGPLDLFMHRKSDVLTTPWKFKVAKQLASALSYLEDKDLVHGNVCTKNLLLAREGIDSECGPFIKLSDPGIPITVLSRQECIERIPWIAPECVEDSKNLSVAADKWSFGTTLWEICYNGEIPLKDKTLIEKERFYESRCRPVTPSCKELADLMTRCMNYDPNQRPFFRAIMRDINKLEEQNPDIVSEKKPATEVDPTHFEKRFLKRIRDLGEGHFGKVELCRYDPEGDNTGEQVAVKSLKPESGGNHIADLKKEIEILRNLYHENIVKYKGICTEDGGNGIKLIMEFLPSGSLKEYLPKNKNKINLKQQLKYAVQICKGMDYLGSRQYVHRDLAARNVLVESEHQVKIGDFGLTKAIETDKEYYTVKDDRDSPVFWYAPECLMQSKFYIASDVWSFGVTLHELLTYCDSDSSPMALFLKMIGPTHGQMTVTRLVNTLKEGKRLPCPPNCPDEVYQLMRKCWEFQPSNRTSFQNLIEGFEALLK

Cytochrome P450 2C19 = Cytochrome P450 2C19 (Homo sapiens, UniProt P33261)
Sequence of Cytochrome P450 2C19 (P33261 whole entry): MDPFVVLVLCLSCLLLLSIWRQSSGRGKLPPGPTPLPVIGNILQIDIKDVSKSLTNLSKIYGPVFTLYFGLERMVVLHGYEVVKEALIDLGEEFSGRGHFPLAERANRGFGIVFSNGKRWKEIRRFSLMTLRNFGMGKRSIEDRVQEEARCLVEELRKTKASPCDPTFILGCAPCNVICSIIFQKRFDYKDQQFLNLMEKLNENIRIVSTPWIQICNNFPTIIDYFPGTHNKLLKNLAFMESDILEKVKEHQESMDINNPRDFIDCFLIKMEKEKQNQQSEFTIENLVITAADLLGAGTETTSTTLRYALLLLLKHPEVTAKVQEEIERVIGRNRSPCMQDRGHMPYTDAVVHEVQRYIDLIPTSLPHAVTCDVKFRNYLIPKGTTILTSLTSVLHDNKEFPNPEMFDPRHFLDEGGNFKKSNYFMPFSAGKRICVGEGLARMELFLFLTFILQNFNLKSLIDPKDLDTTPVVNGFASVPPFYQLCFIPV

[18] = Apparent permeability across apical to basolateral side in dog MDCK cells; assay type: ADME, cell-based, Canis lupus familiaris
Cytochrome P450 3A4 [19] = target: T3, Cytochrome P450 3A4 (Homo sapiens, UniProt P08684); test: Reversible inhibition of CYP3A4 in human liver microsomes using testosterone as substrate by LC/MS/MS analysis; assay type: ADME, Microsome
T3 sequence (P08684 whole entry): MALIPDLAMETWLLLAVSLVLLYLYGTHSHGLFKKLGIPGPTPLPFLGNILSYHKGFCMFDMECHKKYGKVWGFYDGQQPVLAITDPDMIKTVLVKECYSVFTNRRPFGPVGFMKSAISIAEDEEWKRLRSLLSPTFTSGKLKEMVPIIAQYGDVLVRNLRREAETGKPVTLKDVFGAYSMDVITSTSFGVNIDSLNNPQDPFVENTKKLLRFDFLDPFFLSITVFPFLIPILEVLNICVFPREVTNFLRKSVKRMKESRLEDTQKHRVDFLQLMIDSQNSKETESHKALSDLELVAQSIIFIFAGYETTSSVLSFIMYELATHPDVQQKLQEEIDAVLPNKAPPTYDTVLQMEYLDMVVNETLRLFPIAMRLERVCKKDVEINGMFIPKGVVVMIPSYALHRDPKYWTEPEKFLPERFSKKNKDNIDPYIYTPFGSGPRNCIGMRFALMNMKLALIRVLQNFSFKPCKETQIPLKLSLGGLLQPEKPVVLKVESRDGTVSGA

[20] = Oral bioavailability in cynomolgus monkey at 2 mg/kg by LC/MS/MS analysis; assay type: ADME, organism-based, Macaca fascicularis; settings: in vivo
[21] = Hepatic clearance in human hepatocytes after 1 to 4 hrs by LC/MS/MS analysis; assay type: ADME, cell-based, Liver, Hepatocyte
[22] = Clearance in Beagle dog at 0.4 mg/kg, iv by LC/MS/MS analysis; assay type: ADME, organism-based, Canis lupus familiaris; set-up: dose 0.4 mg/kg, route intravenous; settings: in vivo
[23] = Thermodynamic solubility in aqueous buffer at pH 2; assay type: physicochemical; settings: read-out: Therm_solubility
[24] = Metabolic stability in dog hepatocytes assessed as hepatic clearance; assay type: ADME, cell-based, Canis lupus familiaris, Liver, Hepatocyte
Rattus norvegicus = test: Oral bioavailability in Sprague-Dawley rat at 2 mg/kg by LC/MS/MS analysis; assay type: ADME, organism-based; settings: in vivo
[25] = target: T2, Tyrosine-protein kinase JAK1; remark: listed apart in the source
[26] = target: Voltage-gated inwardly rectifying potassium channel KCNH2 (Homo sapiens, UniProt Q12809)
Sequence of Voltage-gated inwardly rectifying potassium channel KCNH2 (Q12809 whole entry): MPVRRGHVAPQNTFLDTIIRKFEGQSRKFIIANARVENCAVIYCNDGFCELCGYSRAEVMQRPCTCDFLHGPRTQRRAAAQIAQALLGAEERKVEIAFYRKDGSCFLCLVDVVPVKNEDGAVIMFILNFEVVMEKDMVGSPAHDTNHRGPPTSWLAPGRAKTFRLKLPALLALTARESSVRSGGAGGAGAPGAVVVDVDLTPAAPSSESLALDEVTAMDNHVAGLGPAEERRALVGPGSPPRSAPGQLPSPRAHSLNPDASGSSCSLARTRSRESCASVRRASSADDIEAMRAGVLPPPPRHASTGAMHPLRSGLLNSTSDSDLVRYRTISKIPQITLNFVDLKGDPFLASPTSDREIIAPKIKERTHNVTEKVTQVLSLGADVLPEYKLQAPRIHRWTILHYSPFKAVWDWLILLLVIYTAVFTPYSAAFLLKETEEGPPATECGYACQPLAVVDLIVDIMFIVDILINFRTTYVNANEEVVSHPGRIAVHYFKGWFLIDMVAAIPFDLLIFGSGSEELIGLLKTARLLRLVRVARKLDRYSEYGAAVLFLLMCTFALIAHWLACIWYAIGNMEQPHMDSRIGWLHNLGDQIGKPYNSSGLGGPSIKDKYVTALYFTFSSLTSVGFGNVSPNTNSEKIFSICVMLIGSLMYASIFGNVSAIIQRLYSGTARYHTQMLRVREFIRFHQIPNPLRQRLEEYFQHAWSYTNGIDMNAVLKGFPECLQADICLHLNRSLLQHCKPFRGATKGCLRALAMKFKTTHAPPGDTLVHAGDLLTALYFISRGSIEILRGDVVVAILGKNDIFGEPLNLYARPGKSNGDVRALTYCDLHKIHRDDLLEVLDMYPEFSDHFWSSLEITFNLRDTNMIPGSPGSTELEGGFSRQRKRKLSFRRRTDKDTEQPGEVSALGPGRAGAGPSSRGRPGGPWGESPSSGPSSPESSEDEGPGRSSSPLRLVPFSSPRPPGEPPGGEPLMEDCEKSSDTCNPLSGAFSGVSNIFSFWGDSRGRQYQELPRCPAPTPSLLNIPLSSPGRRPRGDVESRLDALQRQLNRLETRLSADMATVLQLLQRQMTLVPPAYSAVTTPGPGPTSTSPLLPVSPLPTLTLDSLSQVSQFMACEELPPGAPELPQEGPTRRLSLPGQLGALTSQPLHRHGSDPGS

[27] = Cmax in Sprague-Dawley rat at 2 mg/kg, po by LC/MS/MS analysis; assay type: ADME, organism-based; set-up: dose 2 mg/kg, route oral; settings: in vivo
[28] = Cmax in cynomolgus monkey at 2 mg/kg, po by LC/MS/MS analysis; assay type: ADME, organism-based, Macaca fascicularis; set-up: dose 2 mg/kg, route oral; settings: in vivo
[29] = target: T2, Tyrosine-protein kinase JAK1; remark: listed apart in the source
Cytochrome P450 1A2 = target: T4, Cytochrome P450 1A2 (Homo sapiens, UniProt P05177); test: Reversible inhibition of CYP1A2 in human liver microsomes using phenacetin as substrate by LC/MS/MS analysis; assay type: ADME, Microsome
T4 sequence (P05177 whole entry): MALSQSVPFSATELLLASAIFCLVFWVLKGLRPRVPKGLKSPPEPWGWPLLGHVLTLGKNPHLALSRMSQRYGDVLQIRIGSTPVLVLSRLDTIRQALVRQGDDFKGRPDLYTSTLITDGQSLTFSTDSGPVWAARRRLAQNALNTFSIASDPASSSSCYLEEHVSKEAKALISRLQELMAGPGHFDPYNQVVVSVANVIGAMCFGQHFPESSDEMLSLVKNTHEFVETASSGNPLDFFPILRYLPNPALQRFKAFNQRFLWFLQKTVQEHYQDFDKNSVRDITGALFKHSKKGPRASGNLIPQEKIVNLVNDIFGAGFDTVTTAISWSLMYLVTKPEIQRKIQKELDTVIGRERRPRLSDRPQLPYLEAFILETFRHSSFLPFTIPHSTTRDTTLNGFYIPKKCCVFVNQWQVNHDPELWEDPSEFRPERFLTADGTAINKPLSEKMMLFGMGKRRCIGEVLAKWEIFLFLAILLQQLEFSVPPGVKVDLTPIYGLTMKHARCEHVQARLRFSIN

[30] = Clearance in Sprague-Dawley rat at 0.4 mg/kg, iv by LC/MS/MS analysis; assay type: ADME, organism-based; set-up: dose 0.4 mg/kg, route intravenous; settings: in vivo
[31] = Cmax in Beagle dog at 2 mg/kg, po by LC/MS/MS analysis; assay type: ADME, organism-based, Canis lupus familiaris; set-up: dose 2 mg/kg, route oral; settings: in vivo
[32] = AUC in Beagle dog at 2 mg/kg, po by LC/MS/MS analysis; assay type: ADME, organism-based, Canis lupus familiaris; set-up: dose 2 mg/kg, route oral; settings: plasma
[33] = Apparent permeability across basolateral to apical side in dog MDCK cells; assay type: ADME, cell-based, Canis lupus familiaris
Cytochrome P450 3A4 [34] = target: T3, Cytochrome P450 3A4; test: Reversible inhibition of CYP3A4 in human liver microsomes using midazolam as substrate by LC/MS/MS analysis; assay type: ADME, Microsome

Sequence of Cytochrome P450 2C9 (P11712 whole entry): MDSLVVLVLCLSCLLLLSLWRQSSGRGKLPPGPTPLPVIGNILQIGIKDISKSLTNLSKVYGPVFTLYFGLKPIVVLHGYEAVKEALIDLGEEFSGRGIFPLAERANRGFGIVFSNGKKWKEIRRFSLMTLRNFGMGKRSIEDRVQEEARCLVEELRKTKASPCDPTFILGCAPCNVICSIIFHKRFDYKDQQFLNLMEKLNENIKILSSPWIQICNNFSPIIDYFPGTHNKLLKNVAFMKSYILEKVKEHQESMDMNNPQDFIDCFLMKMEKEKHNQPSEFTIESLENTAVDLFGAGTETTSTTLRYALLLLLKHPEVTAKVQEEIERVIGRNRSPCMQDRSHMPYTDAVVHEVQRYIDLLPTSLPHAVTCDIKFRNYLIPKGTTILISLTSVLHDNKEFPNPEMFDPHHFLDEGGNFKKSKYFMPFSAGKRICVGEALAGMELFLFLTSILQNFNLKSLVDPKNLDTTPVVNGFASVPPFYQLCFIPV

Structure (SMILES): C[C@@H](O)c1nc2cnc3[nH]ccc3c2n1[C@H]1CCCOC1
- IC50 (Cytochrome P450 2C9): > 10 µM
- AUC [1]: 10.7 µM·h
- CLhep predicted [2]: 21 mL/min/kg
- half-life [3]: 1.5 h
- fraction unbound [4]: 0.61
- AUC [5]: 4.3 µM·h
- clearance [6]: 19 mL/min/kg
- CLhep predicted [7]: 2 mL/min/kg
- Ki [8]: 0.031 µM
- half-life [9]: 1.1 h
- IC50 (Cytochrome P450 2D6): > 10 µM
- CLhep predicted [10]: 2.3 mL/min/kg
- fraction unbound [11]: 0.46
- half-life [12]: 5.7 h
- fraction unbound [13]: 0.39
- EC50 [14]: > 5.8 µM
- solubility thermodynamic [15]: > 4 mM
- bioavailability [16]: 111%
- EC50 [17]: 0.18 µM
- IC50 (Cytochrome P450 2C19): > 10 µM
- Papp A→B [18]: 7.6 ×10⁻⁶ cm/s
- IC50 (Cytochrome P450 3A4 [19]): > 10 µM
- bioavailability [20]: 70%
- CLhep predicted [21]: 1.9 mL/min/kg
- clearance [22]: 2.1 mL/min/kg
- solubility thermodynamic [23]: > 4 mM
- CLhep predicted [24]: 4.9 mL/min/kg
- F (Rattus norvegicus): 197%
- Ki [25]: 0.0028 µM
- IC50 [26]: > 100 µM
- Cmax [27]: 5.2 µM
- Cmax [28]: 1.8 µM
- EC50 [29]: 0.11 µM
- IC50 (Cytochrome P450 1A2): > 10 µM
- clearance [30]: 22 mL/min/kg
- Cmax [31]: 9.8 µM
- AUC [32]: 65.7 µM·h
- Papp B→A [33]: 8.6 ×10⁻⁶ cm/s
- IC50 (Cytochrome P450 3A4 [34]): > 10 µM
